# In patent publication US20160331754A1, “THERAPIES FOR TREATING CANCERS” (GILEAD SCIENCES, INC., priority 2014, published 2016):
# Where “and” joins values, the source holds several entries; their conditions need not be identical. Equal values may be shown once.
# What was measured:
# WIL2-S target cells = assay: Antibody-dependent cellular phagocytosis (ADCP) with polarized macrophages; format: cell-based; details: Homo sapiens, Macrophage, 256 nM
# Description: Next, antibody-dependent cellular phagocytosis (ADCP) was characterized. The CD14^+ negatively selected monocytes (Astarte Biologics, Bothell, Wash.) were cultured in Gibco AIM V Medium CTS (Life Technologies, Grand Island, N.Y.) with macrophage colony-stimulating factor (PeproTech, Rocky Hill, N.J.) at 60 ng/mL. At Day 6 or 7, monocyte-derived macrophages were washed and plated with polarizing cytokines. For differentiation to M1 macrophages, cells were plated with interferon-γ 100 ng/mL (R&D Systems, Minneapolis, Minn.) and lipopolysaccharides from E. coli 055:B5 100 ng/mL (Sigma-Aldrich, St Louis, Mo.) for 24 hours. For differentiation to M2c macrophages, cells were plated in interleukin-10 10 ng/mL (R&D Systems) for 48 hours. Compound B titration was added to the plated macrophages and incubated at 37° C. for about 1 hour. […] Cells were then stained with pooled FITC anti-CD14 (Becton, Dickinson and Company, Franklin Lakes, N.J.) and FITC anti-CD11b (eBioscience, San Diego, Calif.), harvested from 96-well plates with Accutase (Merck Millipore, Darmstadt, Germany) and vigorous pipetting, and analyzed on an LSR II flow cytometer (Becton, Dickinson and Company). Double-positive cells (FITC+CellTracker Red) represented phagocytized target cells and the levels of phagocytosis were calculated as % double-positive cells/% double positive cells+% target cells alone×100. […]
# pS6RP Ser235/236 = assay: Flow cytometry, TPO-activated S6RP phosphorylation in CD34+ progenitor cells from MF patients; format: cell-based, human; details: for p-S6RP (table title: percentage of Annexin-V positive cells): cells from Compound A-treated MF patients; for normalized percentage of TPO-activated S6RP phosphorylation (p-S6RP): TPO-treated vehicle=100
# Description: PBMCs were isolated from whole blood of myelofibrosis (MF) patients who had not received treatments (i.e. naïve patients) or received ruxolitinib (i.e. rux-treated patients). The cells were treated with 0.02, 0.2, or 2.0 μM of Compound B or vehicle (0.1% DMSO in 0.1% FBS/RPMI) for 2 hours at 37° C. The cells were then fixed, permeabilized, and stained for FACS analysis. Antibodies specific to p-AKT Ser473 and pS6RP Ser235/236 were used to detect AKT phosphorylation (p-AKT) and S6RP phosphorylation (p-S6RP) in CD34^+/CD3^−/CD14^−/CD19/CD66^− (BD Biosciences) gated cells using flow cytometry. The percentage of basal (i.e. untreated with TPO) AKT and S6RP phosphorylation were normalized to vehicle control. A two-tailed paired t-test (GraphPad Prism) was used to calculate p-values. Values of p<0.05 were considered significant.
# Also, PBMC cells from naïve or ruxolitinib treated patients were isolated and treated with Compound B and with TPO as described above. The percentage of TPO-activated AKT and S6RP phosphorylation were normalized to those of TPO-treated vehicle (“no TPO” values in Table 4). […] Also, the inhibition to PI3K signaling was dose-dependent to Compound B.
# Similar studies were conducted with PI3K inhibitors Compounds C and D. PBMC from MF patients had received ruxolitinib (rux) and MF patient had received Compound A. The cells were treated with Compounds C or D at 0, 20.0, 200.0, 2000.0 nM for 2 hours at 37° C. Cells were treated with TPO for 10 minutes. The percentage of basal p-AKT and p-S6RP levels were normalized to vehicle control and those of TPO-treated were normalized to TPO-treated vehicle control. The PI3Kδ inhibitors Compound C is referred by the chemical names of (S)-2-(1-((9H-purin-6-yl)amino)ethyl)-6-fluoro-3-phenylquinazolin-4(3H)-one.
# pS6 Ser235/236 = assay: Western blot, TPO-activated S6 phosphorylation in BaF3/MPL cells; format: cell-based; details: then TPO
# Description: (§1) In addition, Compound B was examined for the effects on the PI3K signaling pathway by determining the levels of AKT and S6 phosphorylation with or without TPO activation. Two cell lines, BaF3/MPL and UT-7/TPO sensitive or responsive to TPO activation were used. The cells were starved (i.e. growing on medium having less FBS) in […] FBS/RPMI for two hours before treated with 0.1, 1.0, or 2.0 μM of Compound B or vehicle (0.1% DMSO in RPMI) for 2 hours at 37° C. To examine the TPO-activated phosphorylation, the cells were then treated or activated with 50 ng/mL of human recombinant TPO (Peprotech) for 10 minutes at 37° C. The TPO activation or treatment may reflect the conditions in diseased cells as the PI3K pathway is activated by TPO in myelofibrosis. After treating with compound and/or TPO, the cells were collected, lysed by lysis buffer (Cell Signaling), separated by SDS-PAGE, and analyzed by the Western blot using antibodies specific to p-AKT Ser473 or pS6 Ser235/236 (Cell Signaling). The phosphorylation levels in treated cells were calculated and compared to those of untreated cells (i.e. vehicle as negative control).
# [1] = test system: NK-cell expression of CD107a and CD16; assay: Antibody potency and NK-cell expression of CD107a and CD16; format: cell-based; details: data not shown
# p-AKT Ser473 = assay: Western blot, TPO-activated AKT phosphorylation in UT-7/TPO cells; format: cell-based; details: then TPO
# Description: as §1
compound,measurement,setting,value
"CC[C@H](Nc1ncnc2[nH]cnc12)c1nc2cccc(F)c2c(=O)n1-c1ccccc1 [Compound B, (S)-2-(1-((9H-purin-6-yl)amino)propyl)-5-fluoro-3-phenylquinazolin-4(3H)-one]",inhibition at 0.256 µM,WIL2-S target cells,< 30%
same,p-S6RP (table title: percentage of Annexin-V positive cells),pS6RP Ser235/236; 0.02 μM,61% and 69% and 64%
same,normalized percentage of TPO-activated S6RP phosphorylation (p-S6RP),"pS6RP Ser235/236; 0.02 μM, naïve MF patients",57% and 50% and 86%
same,normalized percentage of TPO-activated S6RP phosphorylation (p-S6RP),"pS6RP Ser235/236; 0.02 μM, rux-treated MF patients",55% and 79% and 60% and 59% and 53% and 62%
same,p-S6RP (table title: percentage of Annexin-V positive cells),pS6RP Ser235/236; 0.2 μM,52% and 54% and 42%
same,normalized percentage of TPO-activated S6RP phosphorylation (p-S6RP),"pS6RP Ser235/236; 0.2 μM, naïve MF patients",48% and 42% and 69%
same,normalized percentage of TPO-activated S6RP phosphorylation (p-S6RP),"pS6RP Ser235/236; 0.2 μM, rux-treated MF patients",35% and 56% and 55% and 50% and 32% and 44%
same,p-S6RP (table title: percentage of Annexin-V positive cells),pS6RP Ser235/236; 2.0 μM,30% and 34% and 25%
same,reduced p-S6 levels vs vehicle,pS6 Ser235/236; 0.1 μM 2 h,24%
same,reduced p-S6 levels vs vehicle,pS6 Ser235/236; 1.0 μM 2 h,27%
same,reduced p-S6 levels vs vehicle,pS6 Ser235/236; 2.0 μM 2 h,41%
same,reduction of the potency of both anti-CD20 antibodies,[1]; Compound B 256 nM with obinutuzumab or rituximab 0.01-1000 ng/mL,0 to 15%
same,"NK-cell degranulation, surface expression of CD107a",[1]; in 2 of 3 samples,inhibited NK-cell degranulation
same,reduced p-AKT levels vs vehicle,p-AKT Ser473; 0.1 μM 2 h,11%
same,reduced p-AKT levels vs vehicle,p-AKT Ser473; 1.0 μM 2 h,44%
same,reduced p-AKT levels vs vehicle,p-AKT Ser473; 2.0 μM 2 h,55%
